These results are taken from patent US20230126992A1, “Antibacterial Antiviral Pharmaceutical Composition and Application Thereof” (priority 2020, published 2023).

Where “and” joins values, the source holds several entries; their conditions need not be identical. Equal entries are not always repeated. Structures can show the parent of a compound that is named as a salt. Where two headings read alike, the source gives them in different places. Where only a bound is given, the exact number is not on record here.

In data set [1] the test system is SARS-CoV-2. Briefly: Test of direct killing of virus. Format: cell-based.
Data set [2] relates to capillary discharge sputum volume in rats. Briefly: Capillary discharge sputum volume in rats (Example 3). As to conditions: dose 200 mg/kg intragastric, 7 days; 2 h collection.
For data set [3] the test system is unchanged. Briefly: Capillary discharge sputum volume in rats (Example 9). The conditions noted are these: dose 0.2 g/kg intragastric, 7 days.
Data set [4] has as its system concentrated ammonia water induced cough in mice. Briefly: Concentrated ammonia water induced cough test in mice (Example 9, dropping pills). As to conditions: dose 0.02 g/kg intragastric, 7 days. Format: in vivo, ICR mice.
For data set [5] the test system is unchanged. Briefly: Concentrated ammonia water induced cough test in mice (Example 3). Format: in vivo, ICR mice. The conditions noted are these: dose 20 mg/kg intragastric, 7 d.
Data set [6] deals with LPS-induced fever in rats. The data set can be described thus: LPS induced rat fever model. As to conditions: dose 200 mg/kg.
Data set [7] concerns tracheal excretion of phenol red of mice. Briefly: Tracheal excretion of phenol red in mice. As to conditions: dose 30 mg/kg intragastric, 7 days; 546 nm.
The subject of data set [8] is SARS-CoV-2. Briefly: microbe, parasite or virus in culture.
Data set [9] concerns SARS-CoV-2. The data set can be described thus: Inhibition of Vero E6 cell death induced by SARS-CoV-2, simultaneous addition of drug and virus. As to conditions: for Inhibition rate to SARS-CoV-2 induced cell death: simultaneous addition.
Data set [10] deals with SARS-CoV-2. The conditions noted are these: for Inhibition rate to SARS-CoV-2 induced cell death: drug 1 hour after infection.
The test system of a further data set is Vero E6 cells. The data set can be described thus: Toxicity test to Vero E6 cells (CCK8). As to conditions: 3 days.
For data set [11], the system named is asthma of guinea pigs induced by acetylcholine and histamine phosphate. Briefly: Asthmatic guinea pigs induced by acetylcholine combined with histamine phosphate (Example 3).
The test system is the same in data set [12]. The data set can be described thus: Asthmatic guinea pigs induced by acetylcholine combined with histamine phosphate (Example 9).
The test system of the next data set is acute pharyngitis rats. Briefly: Acute pharyngitis model in rat, serum IL-6 and TNF-α by ELISA. As to conditions: dose 5 mg/kg, 3 days. On the technique in general: ELISA stands for enzyme-linked immunosorbent assay.
Data set [13] relates to influenza virus FM1. In kind it is in vivo, ICR mice. The conditions noted are these: dose 27.5 mg/kg, 7 days.
Data set [14] has as its system influenza virus FM1. In kind it is in vivo, ICR mice. The conditions noted are these: dose 27.5 mg/kg.
Data set [15] concerns influenza virus FM1. Format: in vivo, ICR mice.
Setting [16] is: simultaneous addition of the drug and virus.
Setting [17] is: concentration 0.064 μM, 0.064 µM.
The mark [18] stands for this setting: addition of the drug after infection.
The mark [19] stands for this setting: dose 60 mg/kg intragastric, 7 d.
[20] abbreviates: dose 0.06 g/kg intragastric, 7 days.
The mark [21] stands for this setting: lung tissue homogenate, dose 27.5.

In the case of `OO` [Example H2O2, H2O2], the “Inhibition rate (killing effect)” value in the data set on SARS-CoV-2 [1] (0.01% incubated with virus 0 min) is 82.13 ± 8.64% and 92.94 ± 6.31%; in the data set with SARS-CoV-2 [1] (0.01% incubated with virus 5 min), 98.16 ± 18.42% and 99.25 ± 2.95%; in the data set on SARS-CoV-2 [1] (0.01% incubated with virus 10 min), 89.87 ± 7.26% and 98.25 ± 2.36%; with SARS-CoV-2 [1] (0.01% incubated with virus 30 min) it was 102.74 ± 8.56% and 102.50 ± 14.39%; in the data set on SARS-CoV-2 [1] (0.01% incubated with virus 60 min) it was 95.28 ± 10.93% and 101.35 ± 11.45%.

For the molecule `N[C@@H](CSCC(=O)O)C(=O)O` [carbocisteine], the results for the Sputum excretion volume in data set [2] and in [3] were 18.11 ± 4.32 cm and 21.56 ± 4.41 cm, respectively.

Take `CCN(CC)CCOCCOC(=O)C1(c2ccccc2)CCCC1` [pentoxyverine citrate]: in data set [4], the Cough incubation period amounted to 23.3 ± 4.2 s and the Frequency of cough was 40.6 ± 12.5 time/2 min. Further, in data set [5], the Cough incubation period stood at 26.3 ± 3.3 s and the Frequency of cough worked out at 55.8 ± 14.7 time/2 min.

On to `CC(=O)Oc1ccccc1C(=O)O` [aspirin], for which the “Temperature difference (ΔT)” value in data set [6] (1 h after LPS) came out at 0.10 ± 0.34 °C; in [6] (2 h after LPS), 0.43 ± 0.29 °C; in [6] (3 h after LPS) it was 0.42 ± 0.24 °C; in [6] (4 h after LPS) it was 0.46 ± 0.34 °C; in data set [6] (5 h after LPS) it was 0.79 ± 0.17 °C; in [6] (6 h after LPS) it was 0.88 ± 0.18 °C. Also, in [6] (7 h after LPS), the “Temperature difference (ΔT)” value turned out to be 0.53 ± 0.24 °C.

For the molecule `Nc1c(Br)cc(Br)cc1CN[C@H]1CC[C@H](O)CC1` [ambroxol hydrochloride], in data set [7], the “Tracheal excretion amount of phenol red” value is reported as 0.566 ± 0.201 OD value.

As a reminder, the inhibition is the change of the read-out against control, counted positive when it falls. What is called IC50 is the concentration that gives 50% inhibition. `CCC(CC)COC(=O)[C@H](C)N[P@](=O)(OC[C@H]1O[C@@](C#N)(c2ccc3c(N)ncnn23)[C@H](O)[C@@H]1O)Oc1ccccc1` [Remdesivir]: the inhibition at 0.064 µM in the data set on SARS-CoV-2 [8] (Severe acute respiratory syndrome coronavirus 2, Vero C1008, 1 h, read-out: Inhibition rate to SARS-CoV-2 induced cell death, drug 1 hour after infection, concentration 0.064 μM) amounted to 7.48 ± 11.8%. The inhibition at 0.32 µM with SARS-CoV-2 [8] (Severe acute respiratory syndrome coronavirus 2, Vero C1008, 1 h, read-out: Inhibition rate to SARS-CoV-2 induced cell death, drug 1 hour after infection, concentration 0.32 μM) was determined as 46.3 ± 15.2%; in the data set with SARS-CoV-2 [9] (Severe acute respiratory syndrome coronavirus 2, Vero C1008, read-out: Inhibition rate to SARS-CoV-2 induced cell death, simultaneous addition, concentration 0.32 μM) it was 21.3 ± 12.8%. The inhibition at 1.6 µM in the data set with SARS-CoV-2 [8] (Severe acute respiratory syndrome coronavirus 2, Vero C1008, 1 h, read-out: Inhibition rate to SARS-CoV-2 induced cell death, drug 1 hour after infection, concentration 1.6 μM) amounted to 61.5 ± 6.96%; in the data set with SARS-CoV-2 [9] (Severe acute respiratory syndrome coronavirus 2, Vero C1008, read-out: Inhibition rate to SARS-CoV-2 induced cell death, simultaneous addition, concentration 1.6 μM) it was 56 ± 7.66%. Besides, the inhibition at 8 µM in the data set on SARS-CoV-2 [8] (Severe acute respiratory syndrome coronavirus 2, Vero C1008, 1 h, read-out: Inhibition rate to SARS-CoV-2 induced cell death, drug 1 hour after infection, concentration 8 μM) came out at 73.4 ± 3.67%; with SARS-CoV-2 [9] (Severe acute respiratory syndrome coronavirus 2, Vero C1008, read-out: Inhibition rate to SARS-CoV-2 induced cell death, simultaneous addition, concentration 8 μM) it was 89.2 ± 1.29%. In addition, the inhibition at 40 µM was 91.2 ± 9.91% in the data set on SARS-CoV-2 [8] (Severe acute respiratory syndrome coronavirus 2, Vero C1008, 1 h, read-out: Inhibition rate to SARS-CoV-2 induced cell death, drug 1 hour after infection, concentration 40 μM) and 95.8 ± 8.77% in the data set with SARS-CoV-2 [9] (Severe acute respiratory syndrome coronavirus 2, Vero C1008, read-out: Inhibition rate to SARS-CoV-2 induced cell death, simultaneous addition, concentration 40 μM). The inhibition at 200 µM came out at 100 ± 9.98% in the data set on SARS-CoV-2 [8] (Severe acute respiratory syndrome coronavirus 2, Vero C1008, 1 h, read-out: Inhibition rate to SARS-CoV-2 induced cell death, drug 1 hour after infection, concentration 200 μM) and 98.9 ± 3.47% in the data set with SARS-CoV-2 [9] (Severe acute respiratory syndrome coronavirus 2, Vero C1008, read-out: Inhibition rate to SARS-CoV-2 induced cell death, simultaneous addition, concentration 200 μM). The IC50 in the data set on SARS-CoV-2 [8] (Severe acute respiratory syndrome coronavirus 2, Vero C1008, addition of the drug after infection) was 825 ± 128 nM; in the data set on SARS-CoV-2 [9] (Severe acute respiratory syndrome coronavirus 2, Vero C1008, simultaneous addition of the drug and virus), 1120 ± 52 nM; in the data set on SARS-CoV-2 [9] (setting [16]) it was 1160 nM and 1080 nM; with SARS-CoV-2 [10] (setting [18]), 734 nM and 915 nM. The “TI (CC50/IC50)” value is more than 178.89 in the data set on SARS-CoV-2 [9] (setting [16]) and more than 242.42 in the data set with SARS-CoV-2 [10] (setting [18]). The “Inhibition rate to SARS-CoV-2 induced cell death” value in the data set with SARS-CoV-2 [9] (setting [17]) was 2.80 ± 2.11% and 9.23 ± 5.11%; in the data set with SARS-CoV-2 [9] (concentration 0.32 μM, 0.32 µM), 26.39 ± 6.35%; with SARS-CoV-2 [9] (concentration 1.6 μM, 1.6 µM), 59.24 ± 13.49%; in the data set with SARS-CoV-2 [9] (concentration 8 μM, 8 µM), 78.78 ± 9.66%; in the data set with SARS-CoV-2 [9] (concentration 40 μM, 40 µM) it was 91.04 ± 3.06%; in the data set on SARS-CoV-2 [9] (concentration 200 μM, 200 µM), 94.82 ± 0.89%. Besides, the “Inhibition rate to SARS-CoV-2 induced cell death” value in the data set with SARS-CoV-2 [10] (setting [17]) worked out at 6.51 ± 7.08%; in the data set on SARS-CoV-2 [10] (concentration 0.32 μM, 0.32 µM), 28.39 ± 11.56%; in the data set with SARS-CoV-2 [10] (concentration 1.6 μM, 1.6 µM) it was 53.50 ± 3.37%; in the data set with SARS-CoV-2 [10] (concentration 8 μM, 8 µM), 92.29 ± 6.68%; in the data set on SARS-CoV-2 [10] (concentration 40 μM, 40 µM), 94.31 ± 5.01%; in the data set with SARS-CoV-2 [10] (concentration 200 μM, 200 µM), 98.83 ± 2.97%. Besides, the Cell survival rate in the data set with Vero E6 cells (concentration 0.064 μM) was 101.58 ± 3.33% and 95.44 ± 10.01%; in the data set on Vero E6 cells (concentration 0.32 μM), 99.55 ± 10.53% and 93.59 ± 6.96%; in the data set with Vero E6 cells (concentration 1.6 μM), 91.37 ± 10.73% and 98.11 ± 7.16%; in the data set with Vero E6 cells (concentration 8 μM), 87.35 ± 4.25% and 90.08 ± 1.88%; with Vero E6 cells (concentration 40 μM), 76.24 ± 8.59% and 77.22 ± 11.23%; with Vero E6 cells (concentration 200 μM) it was 53.84 ± 3.48% and 71.58 ± 3.12%.

With `Cn1c(=O)c2[nH]cnc2n(C)c1=O` [aminophylline], the “asthma incubation period, Pre-administration” value in data set [11] (60 mg/kg group, before administration (baseline)) came to 33.1 ± 9.2 s. In addition, the “asthma incubation period, Post-administration” value in data set [11] (setting [19]) came out at 123.4 ± 50.3 s; in [12] (setting [20]), 95.3 ± 37.6 s. The “asthma incubation period, extension value (post-pre)” value in [11] (setting [19]) was 90.3 ± 51.1 s; in data set [12] (setting [20]) it was 58.4 ± 32.1 s. In addition, in data set [12] (0.06 g/kg group, before administration (baseline)), the “Asthma incubation period, pre-administration” value is reported as 36.9 ± 5.8 s.

In the data set on acute pharyngitis rats, `C[C@@H]1C[C@H]2[C@@H]3CCC4=CC(=O)C=C[C@]4(C)[C@@]3(F)[C@@H](O)C[C@]2(C)[C@@]1(O)C(=O)CO` [dexamethasone] had an IL-6 of 146.3 ± 10.4 pg/mL and a TNF-α of 218.2 ± 5.8 pg/mL.

With `CCOC(=O)C1=C[C@@H](OC(CC)CC)[C@H](NC(C)=O)[C@@H](N)C1` [oseltamivir], in the data set with influenza virus FM1 [13], the Lung index was found to be 0.95 ± 0.13 and the “Lung index inhibition rate” value came to 41.0%. Further, the Lung index in the data set with influenza virus FM1 [14] stood at 0.89 ± 0.17. The same molecule registered a Lung index in the data set on influenza virus FM1 [15] (dose 27.5 mg/kg intraperitoneal, 7 days) of 0.89 ± 0.20. For the same molecule, in the data set on influenza virus FM1 [15] (setting [21]), the IL-8 turned out to be 80.3 ± 15.3 pg/mL and the TNF-α is reported as 65.2 ± 17.5 pg/mL.
